In US12581252B2, “Substituted pyrrolo[3,4-b]pyridines as PI3K-α inhibitors” (Relay Therapeutics, Inc., priority 2020, dated 2026) one finds IC50 data, which are given here for 49 compounds.

Broadly, the pIC50 is the IC50 on a negative log10 scale, so that one unit is a factor of ten. High values mean a small IC50, low ones a large IC50.

The structures appear in SMILES notation. pIC50: −log10 of the molar value. Where only a bound is given, the exact number is not on record here.

The assay deals with H1047R PIK3CA enzyme (Homo sapiens, UniProt P42336, H1047R). Kind of assay: ADP-Glo Biochemical PIK3CA Kinase Assay.
Chain of H1047R PIK3CA enzyme (P42336 whole entry H1047R): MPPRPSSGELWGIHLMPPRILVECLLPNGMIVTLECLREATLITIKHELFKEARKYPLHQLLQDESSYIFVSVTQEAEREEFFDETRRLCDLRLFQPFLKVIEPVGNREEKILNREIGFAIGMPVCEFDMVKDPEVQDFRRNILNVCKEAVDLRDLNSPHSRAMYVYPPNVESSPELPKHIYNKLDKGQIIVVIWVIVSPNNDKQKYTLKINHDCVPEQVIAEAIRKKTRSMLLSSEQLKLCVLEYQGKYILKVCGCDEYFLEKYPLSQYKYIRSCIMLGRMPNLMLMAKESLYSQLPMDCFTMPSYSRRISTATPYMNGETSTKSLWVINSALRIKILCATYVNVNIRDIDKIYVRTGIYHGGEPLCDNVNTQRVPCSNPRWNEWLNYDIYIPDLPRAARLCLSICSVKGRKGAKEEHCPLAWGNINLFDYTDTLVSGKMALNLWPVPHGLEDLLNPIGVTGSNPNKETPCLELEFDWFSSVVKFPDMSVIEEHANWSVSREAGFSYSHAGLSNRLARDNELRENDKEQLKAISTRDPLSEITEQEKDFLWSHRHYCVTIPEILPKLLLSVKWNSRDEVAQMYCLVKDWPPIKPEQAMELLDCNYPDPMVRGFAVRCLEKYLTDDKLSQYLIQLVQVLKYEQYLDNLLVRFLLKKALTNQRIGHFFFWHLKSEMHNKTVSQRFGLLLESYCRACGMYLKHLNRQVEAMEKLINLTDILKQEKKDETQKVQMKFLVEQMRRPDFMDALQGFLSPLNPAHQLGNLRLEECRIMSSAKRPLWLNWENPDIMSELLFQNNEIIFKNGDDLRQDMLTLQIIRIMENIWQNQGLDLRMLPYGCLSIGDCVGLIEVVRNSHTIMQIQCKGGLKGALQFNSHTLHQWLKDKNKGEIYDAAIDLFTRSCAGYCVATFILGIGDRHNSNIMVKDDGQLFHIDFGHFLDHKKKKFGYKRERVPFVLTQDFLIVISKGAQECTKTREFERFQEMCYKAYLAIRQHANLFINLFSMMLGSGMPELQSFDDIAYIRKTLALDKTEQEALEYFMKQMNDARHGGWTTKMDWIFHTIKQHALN
Chain of H1047R PIK3CA enzyme (P27986 whole entry partner): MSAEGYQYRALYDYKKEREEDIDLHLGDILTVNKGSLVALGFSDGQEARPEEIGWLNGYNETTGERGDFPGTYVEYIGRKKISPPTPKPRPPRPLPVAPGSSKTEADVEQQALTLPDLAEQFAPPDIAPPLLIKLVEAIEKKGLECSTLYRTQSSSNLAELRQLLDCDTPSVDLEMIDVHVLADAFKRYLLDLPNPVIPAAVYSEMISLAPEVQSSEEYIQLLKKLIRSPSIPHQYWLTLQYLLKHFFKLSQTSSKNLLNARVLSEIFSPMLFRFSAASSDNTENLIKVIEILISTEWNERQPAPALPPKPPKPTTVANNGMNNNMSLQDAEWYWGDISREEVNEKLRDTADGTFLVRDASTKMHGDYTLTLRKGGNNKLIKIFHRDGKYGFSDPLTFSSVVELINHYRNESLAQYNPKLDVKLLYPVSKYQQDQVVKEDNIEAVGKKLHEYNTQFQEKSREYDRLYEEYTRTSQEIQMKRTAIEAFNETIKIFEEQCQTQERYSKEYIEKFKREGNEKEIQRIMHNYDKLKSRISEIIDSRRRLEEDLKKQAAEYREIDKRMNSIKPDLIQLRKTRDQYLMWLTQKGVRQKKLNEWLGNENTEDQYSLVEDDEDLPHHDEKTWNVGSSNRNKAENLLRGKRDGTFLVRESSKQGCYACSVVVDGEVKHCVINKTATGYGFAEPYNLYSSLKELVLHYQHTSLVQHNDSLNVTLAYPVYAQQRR
In turn, `CNc1cc(NC(=O)N2C[C@@](O)(C(F)F)c3cc(F)ccc32)c2c(c1)C(=O)N[C@H]2c1cc(F)ccc1Cl` (single isomer, unassigned) [Compound I-2680] gave a pIC50 of 4.00 to 5.00.

`[2H][C@@]1(c2cc(F)ccc2Cl)NC(=O)c2cccc(NC(=O)N3C[C@](O)(C(F)(F)F)c4cc(F)ccc43)c21` (single isomer, unassigned) [Compound I-2681] had a pIC50 of 5.00 to 6.00.

Take `[2H][C@]1(c2cc(F)ccc2Cl)NC(=O)c2cccc(NC(=O)N3C[C@@](O)(C(F)(F)F)c4cc(F)ccc43)c21` (single isomer, unassigned) [Compound I-2683]: the pIC50 is 5.00 to 6.00.

Regarding `[2H][C@]1(c2cc(F)ccc2Cl)NC(=O)c2cccc(NC(=O)N3C[C@](O)(C(F)(F)F)c4cc(F)ccc43)c21` (single isomer, unassigned) [Compound I-2684], the pIC50 is 4.00 to 5.00.

The compound `O=C1N[C@@H](c2ccccc2Cl)c2c(NC(=O)N3C[C@@](O)(C(F)(F)F)c4cc(F)ccc43)cccc21` (single isomer, unassigned) [Compound I-2685] had a pIC50 of 4.00 to 5.00.

In turn, `O=C1N[C@@H](c2ccccc2Cl)c2c(NC(=O)N3C[C@](O)(C(F)(F)F)c4cc(F)ccc43)cccc21` (single isomer, unassigned) [Compound I-2686] showed a pIC50 of 4.00 to 5.00.

As for `O=C1N[C@H](c2ccccc2Cl)c2c(NC(=O)N3C[C@](O)(C(F)(F)F)c4cc(F)ccc43)cccc21` (single isomer, unassigned) [Compound I-2687], the negative logarithm of the IC50 (pIC50) was 5.00 to 6.00.

As to `CN(C)c1cc(NC(=O)N2C[C@@](O)(C(F)(F)F)c3cc(F)ccc32)c2c(n1)C(=O)N[C@H]2c1cc(F)ccc1Cl` (single isomer, unassigned) [Compound I-2691], the pIC50 is 5.00 to 6.00.

`CN(C)c1cc(NC(=O)N2C[C@](O)(C(F)(F)F)c3cc(F)ccc32)c2c(n1)C(=O)N[C@@H]2c1cc(F)ccc1Cl` (single isomer, unassigned) [Compound I-2692] had a pIC50 of 4.00 to 5.00.

With `CN(C)c1cc(NC(=O)N2C[C@@](O)(C(F)(F)F)c3cc(F)ccc32)c2c(n1)C(=O)N[C@@H]2c1cc(F)ccc1Cl` (single isomer, unassigned) [Compound I-2693], the pIC50 was 4.00 to 5.00.

In turn, `NCc1cc(NC(=O)N2C[C@](O)(C(F)F)c3cc(F)ccc32)c2c(c1)C(=O)N[C@@H]2c1cc(F)ccc1Cl` (single isomer, unassigned) [Compound I-2695] showed a pIC50 of 5.00 to 6.00.

In turn, `NCc1cc(NC(=O)N2C[C@@](O)(C(F)F)c3cc(F)ccc32)c2c(c1)C(=O)N[C@H]2c1cc(F)ccc1Cl` (single isomer, unassigned) [Compound I-2696] gave a pIC50 of 5.00 to 6.00.

Turning to `NCc1cc(NC(=O)N2C[C@](O)(C(F)F)c3cc(F)ccc32)c2c(c1)C(=O)N[C@H]2c1cc(F)ccc1Cl` (single isomer, unassigned) [Compound I-2697], the negative logarithm of the IC50 (pIC50) was 5.00 to 6.00.

As to `O=C1N[C@H](c2cc(F)ccc2Cl)c2c(NC(=O)N3C[C@](O)(C(F)(F)F)c4cc(F)ccc43)ccnc21` (single isomer, unassigned) [Compound I-2699], the pIC50 is 5.00 to 6.00.

Regarding `O=C1N[C@@H](c2cc(F)ccc2Cl)c2c(NC(=O)N3C[C@@](O)(C(F)(F)F)c4cc(F)ccc43)ccnc21` (single isomer, unassigned) [Compound I-2700], the pIC50 is 5.00 to 6.00.

As for `O=C1N[C@@H](c2cc(F)ccc2Cl)c2c(NC(=O)N3C[C@](O)(C(F)(F)F)c4cc(F)ccc43)ccnc21` (single isomer, unassigned) [Compound I-2701], the pIC50 was 5.00 to 6.00.

The compound `O=C1N[C@H](c2cc(F)ccc2Cl)c2c(NC(=O)N3C[C@](O)(C(F)(F)F)c4cc(F)ccc43)cc(Cl)nc21` (single isomer, unassigned) [Compound I-2702] gave a pIC50 of 5.00 to 6.00.

In turn, `O=C1N[C@@H](c2cc(F)ccc2Cl)c2c(NC(=O)N3C[C@@](O)(C(F)(F)F)c4cc(F)ccc43)cc(Cl)nc21` (single isomer, unassigned) [Compound I-2705] showed a pIC50 of 5.00 to 6.00.

The compound `O=C(Nc1cc(-c2ccncc2F)cc2c1[C@H](c1cc(F)ccc1Cl)NC2=O)c1cc(F)cc(C(F)(F)F)c1` (stereo in doubt) [Compound I-987] had a pIC50 of 5.00 to 6.00.

In the case of `O=C1NCc2c(NC(=O)N3CCCC[C@H]3Cc3ccccc3)cccc21` (stereo in doubt) [Compound I-988], the pIC50 was 4.00 to 5.00.

`O=C1NCc2c(NC(=O)N3CCCC[C@@H]3Cc3ccccc3)cccc21` (stereo in doubt) [Compound I-989] had a pIC50 of 4.00 to 5.00.

Compound `Cn1ccc(-c2cc(NC(=O)c3cc(F)cc(C(F)(F)F)c3)c3c(c2)C(=O)N[C@H]3c2cc(F)ccc2Cl)cc1=O` (stereo in doubt) [Compound I-1001] gave a pIC50 of 5.00 to 6.00.

Turning to `Nc1ncc(-c2cc(NC(=O)c3cc(F)cc(C(F)(F)F)c3)c3c(c2)C(=O)N[C@H]3c2cc(F)ccc2Cl)cn1` (stereo in doubt) [Compound I-1004], the pIC50 is 5.00 to 6.00.

`COc1cccc(-c2cc(NC(=O)c3cc(F)cc(C(F)(F)F)c3)c3c(c2)C(=O)N[C@@H]3c2cc(F)ccc2Cl)n1` (stereo in doubt) [Compound I-1007] had a pIC50 of 5.00 to 6.00.

Compound `O=C(Nc1cc(-c2cccnc2)cc2c1[C@H](c1cc(F)ccc1Cl)NC2=O)c1cc(F)cc(C(F)(F)F)c1` (stereo in doubt) [Compound I-1008] showed a pIC50 of 5.00 to 6.00.

As to `Cc1cnccc1-c1cc(NC(=O)c2cc(F)cc(C(F)(F)F)c2)c2c(c1)C(=O)N[C@@H]2c1cc(F)ccc1Cl` (stereo in doubt) [Compound I-1011], the pIC50 is 5.00 to 6.00.

In turn, `O=C(Nc1cc(-c2ccc3ncnn3c2)cc2c1[C@@H](c1cc(F)ccc1C(F)F)NC2=O)c1cc(F)cc(C(F)(F)F)c1` (stereo in doubt) [Compound I-1055] gave a pIC50 of 5.00 to 6.00.

`O=C(Nc1cc(-c2ccc3ncnn3c2)cc2c1[C@@H](c1cc(F)cc(F)c1Cl)NC2=O)c1cc(F)cc(C(F)(F)F)c1` (stereo in doubt) [Compound I-1063]: the pIC50 is 4.00 to 5.00.

In turn, `O=C(Nc1cc(-c2ccc3ncnn3c2)cc2c1[C@H](c1cc(F)ccc1Cl)NC2=O)c1ccc(F)c(OC(F)(F)F)c1` (stereo in doubt) [Compound I-1107] showed a pIC50 of 6.30 to 7.00.

Compound `O=C(Nc1cc(-c2ccc3ncnn3c2)cc2c1[C@@H](c1cc(F)ccc1Cl)NC2=O)c1ccc(F)c(OC(F)(F)F)c1` (stereo in doubt) [Compound I-1108] gave a negative logarithm of the IC50 (pIC50) of 5.00 to 6.00.

Compound `O=C(Nc1cc(-c2ccc3ncnn3c2)cc2c1[C@@H](c1cc(F)ccc1Cl)NC2=O)c1cccc(C(F)(F)F)c1` (stereo in doubt) [Compound I-1116] gave a pIC50 of 4.00 to 5.00.

Turning to `O=C(Nc1cc(-c2ccc3ncnn3c2)cc2c1[C@@H](c1cc(F)ccc1Cl)NC2=O)c1cc(F)cc(OC(F)(F)F)c1` (stereo in doubt) [Compound I-1117], the pIC50 is 5.00 to 6.00.

With `O=C(Nc1cc(-c2ccc3ncnn3c2)cc2c1[C@H](c1cc(F)ccc1Cl)NC2=O)c1cccc(C(F)(F)F)c1` (stereo in doubt) [Compound I-1121], the pIC50 is no less than 7.00.

In turn, `O=C(Nc1cc(-n2ccnc2)cc2c1[C@@H](c1cc(F)ccc1Cl)NC2=O)c1cc(F)cc(C(F)(F)F)c1` (stereo in doubt) [Compound I-1125] gave a pIC50 of 6.30 to 7.00.

Regarding `O=C(Nc1cc(-n2ccnc2)cc2c1[C@H](c1cc(F)ccc1Cl)NC2=O)c1cc(F)cc(C(F)(F)F)c1` (stereo in doubt) [Compound I-1126], the negative-log IC50 (pIC50) was no less than 7.00.

For the compound `O=C(Nc1cc(-c2ccc3ncnn3c2)cc2c1[C@H](c1cc(F)ccc1Cl)NC2=O)c1cc(F)cc(Cl)c1` (stereo in doubt) [Compound I-1165], the pIC50 was no less than 7.00.

In the case of `O=C(Nc1cc(-c2ccc3ncnn3c2)cc2c1[C@@H](c1cc(F)ccc1Cl)NC2=O)c1cc(F)cc(Cl)c1` (stereo in doubt) [Compound I-1166], the negative-log IC50 (pIC50) was 5.00 to 6.00.

`Cc1ccc(C(=O)Nc2cc(-c3ccc4ncnn4c3)cc3c2[C@H](c2cc(F)ccc2Cl)NC3=O)cc1C(F)(F)F` (stereo in doubt) [Compound I-1167] gave a negative logarithm of the IC50 (pIC50) of no less than 7.00.

Consider `Cc1ccc(C(=O)Nc2cc(-c3ccc4ncnn4c3)cc3c2[C@@H](c2cc(F)ccc2Cl)NC3=O)cc1C(F)(F)F` (stereo in doubt) [Compound I-1168], for which the negative-log IC50 (pIC50) is 4.00 to 5.00.

Consider `O=C(Nc1cc(-c2ccc3ncnn3c2)cc2c1[C@H](c1cc(F)ccc1Cl)NC2=O)c1cc(F)cc(OC(F)F)c1` (stereo in doubt) [Compound I-1169], for which the pIC50 is 6.30 to 7.00.

Regarding `O=C(Nc1cc(-c2ccc3ncnn3c2)cc2c1[C@@H](c1cc(F)ccc1Cl)NC2=O)c1cc(F)cc(OC(F)F)c1` (stereo in doubt) [Compound I-1170], the pIC50 was 4.00 to 5.00.

Compound `O=C(Nc1cc(-c2ccc3ncnn3c2)cc2c1[C@H](c1cc(F)ccc1Cl)NC2=O)c1cc(F)cc(C(F)F)c1` (stereo in doubt) [Compound I-1171] had a pIC50 of 6.30 to 7.00.

`O=C(Nc1cc(-c2ccc3ncnn3c2)cc2c1[C@@H](c1cc(F)ccc1Cl)NC2=O)c1cc(F)cc(C(F)F)c1` (stereo in doubt) [Compound I-1172] showed a negative-log IC50 (pIC50) of 4.00 to 5.00.

`O=C(Nc1cc(-c2ccc3ncnn3c2)cc2c1[C@H](c1cc(F)ccc1Cl)NC2=O)c1cc(F)c(F)c(Cl)c1` (stereo in doubt) [Compound I-1173] had a pIC50 of no less than 7.00.

`O=C(Nc1cc(-c2ccc3ncnn3c2)cc2c1[C@@H](c1cc(F)ccc1Cl)NC2=O)c1cc(F)c(F)c(Cl)c1` (stereo in doubt) [Compound I-1174] showed a pIC50 of 5.00 to 6.00.

As for `O=C(Nc1cc(-c2ccc3ncnn3c2)cc2c1[C@@H](c1cc(F)ccc1Cl)NC2=O)c1cc(Cl)cc(Cl)c1` (stereo in doubt) [Compound I-1207], the pIC50 was 5.00 to 6.00.

The compound `O=C(Nc1cc(-c2ccc3ncnn3c2)cc2c1[C@H](c1cc(F)ccc1Cl)NC2=O)c1cc(Cl)cc(Cl)c1` (stereo in doubt) [Compound I-1208] had a pIC50 of no less than 7.00.

The compound `N#Cc1cnccc1-c1cc(NC(=O)c2cc(F)cc(C(F)(F)F)c2)c2c(c1)C(=O)N[C@@H]2c1cc(F)ccc1Cl` (stereo in doubt) [Compound I-1231] gave a negative logarithm of the IC50 (pIC50) of 6.00 to 6.30.

As for `N#Cc1cnccc1-c1cc(NC(=O)c2cc(F)cc(C(F)(F)F)c2)c2c(c1)C(=O)N[C@H]2c1cc(F)ccc1Cl` (stereo in doubt) [Compound I-1232], the pIC50 is no less than 7.00.
